Assay results: patent publication US12662451B2, “Chemical compounds and uses thereof” (GLAXOSMITHKLINE INTELLECTUAL PROPERTY (NO.4) LIMITED, priority 2023, dated 2026)
Structures can show the parent of a compound that is named as a salt. Where two headings read alike, the source gives them in different places.

Columns and labels:
[1] = molecular target: T1, recombinant full-length WRN protein (1-1432) (Homo sapiens, UniProt Q14191); test: WRN unwinding activity, fluorogenic 384-well assay (Example A); type: biochemical; conditions: WRN unwinding activity, 4 hr; Table 2; read-out: 4 hr UNW pIC50 (converted)
T1 construct: recombinant full-length WRN protein (1-1432)
Procedure, shortened: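 200 pM enzyme (2× stock) preincubated with compound 4 h at ambient temperature, then 200 μM ATP and 12 nM quenched TAMRA-labelled dsDNA (2× stocks) added for 60 min; EDTA-quenched. Buffer 25 mM Tris pH 8.0, 5 mM NaCl, 2 mM MgCl2. Fluorescence at 525/598 nm; pIC50 from four-parameter fit.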

[2] = Cell culture media unbound percentage and stability by rapid equilibrium dialysis (Example C); type: in vitro ADME; conditions: bovine, cell assay medium (RPMI-1640 with 10% fetal bovine serum), pH 7.4, rapid equilibrium dialysis, 4 hours at 37° C., read-out: Cell Culture Media Binding (% unbound)
Description: (§1) It was observed that the compounds of the present disclosure are bound to cell assay media to various degrees, which would affect the cellular potency analysis in Example B. To measure free drug potency, concentrations used in the cell assays were corrected with the measured free fraction determined in the cell assay media. Compounds were incubated in a rapid equilibrium dialysis (RED) at a nominal concentration of 1 μM, using a dialysis buffer of phosphate-buffered saline (PBS, 100 mM sodium phosphate+150 mM sodium chloride, pH 7.4). The test compound was spiked into the medium. Aliquots were added to the donor wells of a RED plate in triplicate, and blank PBS was added to each receiver well, at volumes recommended by the manufacturer. Plates were incubated with shaking at 200 rpm for 4 hours at 37° C. The resultant samples were analysed by LC-MS/MS using a specific and sensitive method. Results were reported as analyte:internal standard peak area ratios (PARs), and the percent unbound was calculated with the following equation:
[formula] where D=the matrix dilution factor (D=1 for media); Apparent Fu=Crec/Cdon; Crec=PAR in receiver samples; Cdon=PAR in donor samples. Percent stability was calculated by:
(§2) [formula] where Cfinal=PAR in the T=240 minute sample; Cinitial=PAR in the T=0 minute sample. Cell culture media unbound percentage and calculated free drug potency of selected compounds along with their measured potency from Example B are shown in Table 3.

[3] = test system: SW48 human colorectal cancer cells; test: Calculated free drug potency in SW48 cell assay, corrected with media free fraction (Example C); type: cell-based; conditions: for CC50: Homo sapiens, SW48, SW48 pCC50 corrected with measured free fraction in cell assay media; for Free Drug SW48 pCC50: SW48 pCC50 corrected with measured free fraction in cell assay media
Description: as §1, §2

[4] = test system: SW48 human colorectal cancer cells (MSI-H cancer cells); test: SW48 cell viability, CellTiter-Glo, 120 hours (Example B); conditions: for CC50: Homo sapiens
[5] = SW48, 120 h, read-out: SW48 pCC50, SW48 cell viability, 120 hours incubation (converted), Table 2
[6] = SW48, read-out: SW48 pCC50, measured potency from Example B, as repeated in Table 3 (converted)
[7] = SW48 cell viability, 120 hours incubation, Table 2
[8] = measured potency from Example B, as repeated in Table 3

T1 sequence (Q14191 whole entry): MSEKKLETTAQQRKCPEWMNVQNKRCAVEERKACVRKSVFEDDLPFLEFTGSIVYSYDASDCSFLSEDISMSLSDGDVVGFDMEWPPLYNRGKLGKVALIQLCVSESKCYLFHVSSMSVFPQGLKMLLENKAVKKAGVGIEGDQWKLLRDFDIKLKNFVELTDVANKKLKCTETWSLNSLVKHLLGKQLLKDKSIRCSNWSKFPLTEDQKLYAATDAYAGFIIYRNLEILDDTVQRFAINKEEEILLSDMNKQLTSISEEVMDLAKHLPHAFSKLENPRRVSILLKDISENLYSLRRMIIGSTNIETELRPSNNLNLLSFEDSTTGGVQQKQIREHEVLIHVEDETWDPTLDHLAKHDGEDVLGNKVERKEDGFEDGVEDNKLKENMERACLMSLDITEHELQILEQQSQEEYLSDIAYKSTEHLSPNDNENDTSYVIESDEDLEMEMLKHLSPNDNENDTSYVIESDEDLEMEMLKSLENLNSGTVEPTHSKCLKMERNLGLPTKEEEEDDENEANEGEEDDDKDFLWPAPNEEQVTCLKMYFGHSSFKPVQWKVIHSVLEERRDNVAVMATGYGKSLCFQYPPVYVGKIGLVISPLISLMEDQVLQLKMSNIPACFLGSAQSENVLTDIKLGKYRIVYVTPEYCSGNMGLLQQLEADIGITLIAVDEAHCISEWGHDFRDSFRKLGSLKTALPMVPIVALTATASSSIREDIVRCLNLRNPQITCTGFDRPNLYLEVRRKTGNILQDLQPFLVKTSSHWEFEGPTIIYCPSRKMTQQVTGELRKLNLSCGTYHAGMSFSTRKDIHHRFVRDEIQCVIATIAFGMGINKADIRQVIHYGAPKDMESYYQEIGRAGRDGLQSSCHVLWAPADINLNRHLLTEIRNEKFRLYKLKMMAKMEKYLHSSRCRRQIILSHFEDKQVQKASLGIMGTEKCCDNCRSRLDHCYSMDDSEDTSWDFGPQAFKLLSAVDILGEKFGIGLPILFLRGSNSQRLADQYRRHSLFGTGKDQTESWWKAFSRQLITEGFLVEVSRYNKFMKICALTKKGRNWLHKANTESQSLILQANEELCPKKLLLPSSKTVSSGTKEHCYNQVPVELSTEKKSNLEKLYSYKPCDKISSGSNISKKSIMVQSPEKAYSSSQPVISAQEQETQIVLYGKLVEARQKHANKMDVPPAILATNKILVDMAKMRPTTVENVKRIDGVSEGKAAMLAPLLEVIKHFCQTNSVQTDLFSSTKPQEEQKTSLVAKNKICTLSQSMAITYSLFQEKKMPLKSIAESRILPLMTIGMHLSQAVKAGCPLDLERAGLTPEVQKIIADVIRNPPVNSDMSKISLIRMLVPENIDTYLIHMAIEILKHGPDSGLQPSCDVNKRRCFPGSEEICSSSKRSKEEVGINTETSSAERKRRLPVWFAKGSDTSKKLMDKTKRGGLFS

SMILES	IC50 [1]	fraction unbound at 4 h, 1 µM [2]	CC50 [3]	CC50 [4, 5]	CC50 [4, 6]	Free Drug SW48 pCC50 [3]	SW48 pCC50 [4, 7]	SW48 pCC50 [4, 8]
Cc1nc2cc(S(=O)(=O)N(C)c3ccc([C@H]4C[C@H](N5CC6(F)CC5C6)C[C@@H](C(=O)Nc5ccc(C(F)(F)F)cc5F)[C@@H]4C(=O)O)cc3)ccc2n1C (relative stereo) [Example 400, rel-(1R,2R,4S,6S)-2-((2-fluoro-4-(trifluoromethyl)phenyl)carbamoyl)-4-(4-fluoro-2-azabicyclo[2.1.1]hexan-2-yl)-6-(4-((N,1,2-trimethyl-1H-benzo[d]imidazole)-5-sulfonamido)phenyl)cyclohexane-1-carboxylic acid]	20 nM	0.049	389 nM	7940 nM	7940 nM	–	–	–
CN(c1ccc([C@H]2CCC[C@@H](C(=O)Nc3ccc(C(F)(F)F)cc3F)[C@@H]2C(=O)O)cc1)S(=O)(=O)c1ccc2c(c1)ncn2C (single isomer, unassigned) [Example 88]	2.51 nM	0.0297	11.7 nM	398 nM	398 nM	–	–	–
CC(=O)N1CCc2cc(S(=O)(=O)N(C)c3ccc([C@H]4CCC[C@@H](C(=O)Nc5ccc(C(F)(F)F)cc5F)[C@@H]4C(=O)O)cc3)ccc21 (single isomer, unassigned) [Example 90]	3.98 nM	0.0553	69.2 nM	1260 nM	1260 nM	–	–	–
Cc1nc2cc(S(=O)(=O)N(C)c3ccc([C@H]4C[C@@H]5OCC[C@@H]5[C@@H](C(=O)Nc5ccc(C(F)(F)F)cc5F)[C@@H]4C(=O)O)cc3)ccc2n1C (single isomer, unassigned) [Example 157]	2.51 nM	0.242	–	–	–	7.50	6.9	6.9
Cc1nc2cc(S(=O)(=O)N(C)c3ccc([C@@H]4CCC[C@H](C(=O)Nc5c(F)cc(C(C)C)cc5F)[C@H]4C(=O)O)cc3)ccc2n1C (single isomer, unassigned) [Example 171]	3.16 nM	0.0634	50.1 nM	794 nM	794 nM	–	–	–
CCO[C@@H]1C[C@H](c2ccc(N(C)S(=O)(=O)c3ccc4c(c3)nc(C)n4C)cc2)[C@@H](C(=O)O)[C@H](C(=O)Nc2ccc(C(F)(F)F)cn2)C1 (single isomer, unassigned) [Example 199]	2.51 nM	0.16	79.4 nM	501 nM	501 nM	–	–	–
Cc1nc2cc(S(=O)(=O)N(C)c3ccc([C@@H]4CCC[C@H](COc5ccc(C(F)(F)F)cc5)[C@H]4C(=O)O)cc3)cc([C@@H]3CCCN(C)C3)c2n1C (single isomer, unassigned) [Example 211, formic acid salt]	2 nM	0.0208	66.1 nM	3160 nM	3160 nM	–	–	–
Cc1nc2cc(S(=O)(=O)N(C)c3ccc([C@@H]4CCC[C@H](COc5ccc(C(F)(F)F)cc5)[C@H]4C(=O)O)cc3)cc([C@H]3CCCN(C)C3)c2n1C (single isomer, unassigned) [Example 212]	1.58 nM	0.0205	40.7 nM	2000 nM	2000 nM	–	–	–
CCO[C@H]1C[C@@H](COc2ccc(C(F)(F)F)cc2)[C@H](C(=O)O)[C@@H](c2ccc(N(C)S(=O)(=O)c3ccc4c(c3)nc(C)n4C)cc2)C1 (single isomer, unassigned) [Example 221]	3.98 nM	0.0411	81.3 nM	2000 nM	2000 nM	–	–	–
Cc1nc2cc(S(=O)(=O)Nc3ccc([C@@H]4CCC[C@H](C(=O)Nc5ccc(C(F)(F)F)cc5F)[C@H]4C(=O)O)cc3)ccc2n1C (single isomer, unassigned) [Example 224]	1.26 nM	0.0355	17.8 nM	501 nM	501 nM	–	–	–
Cc1nnc(-c2cc([C@@H]3CCC[C@H](C(=O)Nc4ccc(C(F)(F)F)cc4F)[C@H]3C(=O)O)ccc2C(F)(F)F)o1 (single isomer, unassigned) [Example 245]	7.94 nM	0.0971	776 nM	7940 nM	7940 nM	–	–	–
CN[C@H]1C[C@H](c2ccc(N(C)S(=O)(=O)c3ccc4c(c3)nc(C)n4C)cc2)[C@@H](C(=O)O)[C@H](C(=O)Nc2ccc(C(F)(F)F)cc2F)C1 (single isomer, unassigned) [Example 254]	25.1 nM	0.234	2340 nM	10000 nM	–	–	–	–
CN[C@H]1C[C@H](C(=O)Nc2ccc(C(F)(F)F)cc2F)[C@@H](C(=O)O)[C@H](c2ccc(N(C)S(=O)(=O)c3ccc4c(c3)nc(C)n4C)cc2)C1 (single isomer, unassigned) [Example 255]	158 nM	0.439	3470 nM	7940 nM	7940 nM	–	–	–
CN[C@@H]1C[C@H](c2ccc(N(C)S(=O)(=O)c3ccc4c(c3)nc(C)n4C)cc2)[C@@H](C(=O)O)[C@H](C(=O)Nc2ccc(C(F)(F)F)cc2F)C1 (single isomer, unassigned) [Example 256]	1.26 nM	0.284	1780 nM	6310 nM	6310 nM	–	–	–
Cc1nc2cc(S(=O)(=O)N(C)c3ccc([C@H]4C[C@@H](C#N)C[C@@H](C(=O)Nc5ccc(C(F)(F)F)cc5F)[C@@H]4C(=O)O)cc3)ccc2n1C (single isomer, unassigned) [Example 287]	1.58 nM	0.156	61.7 nM	398 nM	398 nM	–	–	–
CC(=O)N[C@@H]1C[C@@H](COc2ccc(C(F)(F)F)cc2)[C@H](C(=O)O)[C@@H](c2ccc(N(C)S(=O)(=O)c3ccc4c(c3)nc(C)n4C)cc2)C1 (single isomer, unassigned) [Example 298]	501 nM	0.151	1510 nM	10000 nM	–	–	–	–
Cc1nc2cc(S(=O)(=O)N(C)c3ccc([C@H]4C[C@@H](N5CCOCC5)C[C@@H](C(=O)Nc5ccc(C(F)(F)F)cc5F)[C@@H]4C(=O)O)cc3)ccc2n1C (single isomer, unassigned) [Example 337]	1.58 nM	0.224	–	–	–	7.45	6.8	6.8
Cc1nc2cc(S(=O)(=O)N(C)c3ccc([C@H]4C[C@@H](OCC5CC6CCC(C5)O6)C[C@@H](C(=O)Nc5ccc(C(F)(F)F)cc5F)[C@@H]4C(=O)O)cc3)ccc2n1C (single isomer, unassigned) [Example 360]	5.01 nM	0.0942	5.89 nM	63.1 nM	63.1 nM	–	–	–
Cc1nc2cc(S(=O)(=O)N(C)c3ccc([C@@H]4CC(F)(F)C[C@H](C(=O)Nc5ccc(C(F)(F)F)cc5F)[C@H]4C(=O)O)cc3)ccc2n1C (single isomer, unassigned) [Example 364]	631 nM	0.113	1120 nM	10000 nM	–	–	–	–
Cc1nc2cc(S(=O)(=O)N(C)c3ccc([C@H]4CCC[C@@H](C(=O)Nc5ccc(C(F)(F)F)cc5F)[C@@H]4C(=O)O)cc3F)ccc2n1C (single isomer, unassigned) [Example 368]	5.01 nM	0.128	102 nM	794 nM	794 nM	–	–	–
Cc1nc2cc(S(=O)(=O)N(C)c3ccc([C@H]4CCC[C@@H](C(=O)Nc5ccc(C(F)(F)F)cc5F)[C@@H]4C(=O)O)c(F)c3)ccc2n1C (single isomer, unassigned) [Example 374]	3.98 nM	0.113	44.7 nM	–	398 nM	–	6.4	–
Cc1nc2cc(S(=O)(=O)N(C)c3ccc([C@@H]4C[C@@H]5COC[C@@H]5[C@@H](C(=O)Nc5ccc(C(F)(F)F)cc5F)[C@@H]4C(=O)O)cc3)ccc2n1C (single isomer, unassigned) [Example 389]	5.01 nM	0.235	589 nM	2510 nM	2510 nM	–	–	–
